# Patent US12692253B2, “Antimicrobial compounds and methods” (Curza Global, LLC, priority 2019, dated 2026)
# What was measured:
# [1] = test system: E. coli S30 extract (bacterial protein synthesis); assay: E. coli S30 extract coupled transcription-translation luciferase assay (inhibition of bacterial protein synthesis); type: biochemical; settings: class by IC50 or % inhibition @ 1 μM, read-out: S30 IC50 (μM/% inhib.)
# Procedure, shortened: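 Coupled transcription-translation in E. coli S30 circular-DNA extract expressing luciferase from pBESTluc, with 8-point 2-fold compound dilutions; 1 hour at 37 °C, stopped at 4 °C. Luminescence read; % inhibition versus no-inhibitor wells, no-DNA wells as background.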
# [2] = biological target: Rabbit Reticulocyte Lysate (eukaryotic protein synthesis); assay: Rabbit reticulocyte lysate luciferase assay (inhibition of eukaryotic protein synthesis); type: biochemical; settings: class by IC50 or % inhibition @ 1 μM, read-out: Rabbit reticulocyte IC50 (μM/% inhib.)
# Procedure, shortened: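 In vitro translation of luciferase control RNA in nuclease-treated rabbit reticulocyte lysate with amino acid mixture, compounds in 2-fold serial dilution, 90 minutes at 30° C. Luminescence read after luciferase reagent; % inhibition relative to water no-inhibitor controls, with no-RNA background wells.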
# [3] = test system: A. baumannn (Ab); assay: Broth microdilution minimum inhibitory concentration (MIC), CLSI; type: cell-based; settings: Acinetobacter baumannii, read-out: Ab + bicarb MIC
# Procedure, shortened: (§1)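 Two-fold serial dilutions in CAMHB, optionally with sodium bicarbonate (6.25 or 25 mM final) or heat-inactivated human serum (0-50%), 8 concentrations, triplicate. Inoculum 5×10^4 CFU/well from log-phase cultures grown at 35±2 °C to 0.5 McFarland.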
# [4] = test system: E. coli (Ec); assay: as above; type: cell-based; settings: Escherichia coli, growth medium supplemented with sodium bicarbonate, read-out: E. coli + bicarb MIC
# Procedure, shortened: as §1
# [5] = test system: E. faecalis (Ef); assay: as above; type: cell-based; settings: Enterococcus faecalis, growth medium supplemented with sodium bicarbonate, read-out: Ef + bicarb MIC
# Procedure, shortened: as §1
# [6] = test system: P. aeruginosa (Pa); assay: as above; type: cell-based; settings: Pseudomonas aeruginosa, growth medium supplemented with sodium bicarbonate, read-out: Pa MIC + bicarb
# Procedure, shortened: as §1
# [7] = test system: S. aureus (Sa); assay: as above; type: cell-based; settings: Staphylococcus aureus, growth medium supplemented with sodium bicarbonate, read-out: Sa + bicarb MIC
# Procedure, shortened: as §1
Compound,IC50 [1],IC50 [2],MIC [3],MIC [4],MIC [5],MIC [6],MIC [7]
N[C@@H]1[C@H]2CN(Cc3ccc(-n4ccc(NC(=O)N5CCC6(CC5)CNC6)nc4=O)cc3)C[C@@H]12 [Compound 61],≥ 1 µM,≥ 1 µM,> 32 µg/mL,8 to 32 µg/mL,> 32 µg/mL,> 32 µg/mL,> 32 µg/mL
N[C@@H]1[C@H]2CN(Cc3ccc(-n4ccc(NC(=O)N5CCC6(CCNCC6)CC5)nc4=O)cc3)C[C@@H]12 [Compound 62],≥ 1 µM,≥ 1 µM,> 32 µg/mL,< 8 µg/mL,8 to 32 µg/mL,> 32 µg/mL,< 8 µg/mL
N[C@@H]1[C@H]2CN(Cc3ccc(-n4ccc(NC(=O)N5CCC6(CCNC6)C5)nc4=O)cc3)C[C@@H]12 (some centres unmarked) [Compound 63],≥ 1 µM,≥ 1 µM,> 32 µg/mL,> 32 µg/mL,> 32 µg/mL,> 32 µg/mL,> 32 µg/mL
NC1CCC12CCN(C(=O)Nc1ccn(-c3ccc(CN4C[C@@H]5[C@@H](N)[C@@H]5C4)cc3)c(=O)n1)CC2 (some centres unmarked) [Compound 64],≥ 1 µM,≥ 1 µM,> 32 µg/mL,8 to 32 µg/mL,8 to 32 µg/mL,> 32 µg/mL,8 to 32 µg/mL
CC(C)(N)C(=O)N1CCN(C(=O)Nc2ccn(-c3ccc(CN4C[C@@H]5[C@@H](N)[C@@H]5C4)cc3)c(=O)n2)CC1 [Compound 65],< 0.5 µM,≥ 1 µM,8 to 32 µg/mL,< 8 µg/mL,< 8 µg/mL,> 32 µg/mL,< 8 µg/mL
CC(C)(N)C(=O)N1CCN(C(=O)Nc2ccn(-c3ccc(CN4C[C@@H]5[C@@H](N)[C@@H]5[C@H]4CO)cc3)c(=O)n2)CC1 [Compound 66],0.5 to 1 µM,≥ 1 µM,> 32 µg/mL,< 8 µg/mL,> 32 µg/mL,> 32 µg/mL,8 to 32 µg/mL
CC(c1ccc(-n2ccc(NC(=O)N3CCN(C(=O)C(C)(C)N)CC3)nc2=O)cc1)N1C[C@@H]2[C@@H](N)[C@@H]2C1 (some centres unmarked) [Compound 67],< 0.5 µM,≥ 1 µM,> 32 µg/mL,< 8 µg/mL,< 8 µg/mL,> 32 µg/mL,< 8 µg/mL
CC(C)(N)C(=O)N1CCN(C(=O)Nc2ccn(-c3ccc(CN4C[C@@H]5[C@@H](CN)[C@@H]5C4)cc3)c(=O)n2)CC1 [Compound 68],< 0.5 µM,≥ 1 µM,> 32 µg/mL,< 8 µg/mL,> 32 µg/mL,> 32 µg/mL,< 8 µg/mL
CC(N)[C@H]1[C@@H]2CN(Cc3ccc(-n4ccc(NC(=O)N5CCN(C(=O)C(C)(C)N)CC5)nc4=O)cc3)C[C@@H]21 (some centres unmarked) [Compound 73],< 0.5 µM,≥ 1 µM,> 32 µg/mL,< 8 µg/mL,8 to 32 µg/mL,> 32 µg/mL,< 8 µg/mL
CC(C)(N)C(=O)N1CCN(C(=O)Nc2ccn(-c3ccc(CN4C[C@@H]5[C@H](C4)[C@H]5C(N)=O)cc3)c(=O)n2)CC1 [Compound 74],≥ 1 µM,≥ 1 µM,> 32 µg/mL,8 to 32 µg/mL,> 32 µg/mL,> 32 µg/mL,8 to 32 µg/mL
CNC[C@@H]1[C@H]2CN(Cc3ccc(-n4ccc(NC(=O)N5CCN(C(=O)C(C)(C)N)CC5)nc4=O)cc3)C[C@@H]12 [Compound 75],< 0.5 µM,≥ 1 µM,> 32 µg/mL,< 8 µg/mL,8 to 32 µg/mL,> 32 µg/mL,< 8 µg/mL
CC(C)(N)C(=O)N1CCN(C(=O)Nc2ccn(-c3ccc(CN4CCC5(CCNC5)C4)cc3)c(=O)n2)CC1 (centres unmarked) [Compound 80],< 0.5 µM,≥ 1 µM,> 32 µg/mL,< 8 µg/mL,> 32 µg/mL,> 32 µg/mL,< 8 µg/mL
CC(C)(N)C(=O)N1CCN(C(=O)Nc2ccn(-c3ccc(CN4CCC5(CC4)CNC5)cc3)c(=O)n2)CC1 [Compound 83],0.5 to 1 µM,≥ 1 µM,> 32 µg/mL,< 8 µg/mL,> 32 µg/mL,> 32 µg/mL,< 8 µg/mL
CC(C)(N)C(=O)N1CCN(C(=O)Nc2ccn(-c3ccc(CCN4CCC5(CC4)CC5N)cc3)c(=O)n2)CC1 (centres unmarked) [Compound 94],< 0.5 µM,≥ 1 µM,> 32 µg/mL,< 8 µg/mL,8 to 32 µg/mL,8 to 32 µg/mL,< 8 µg/mL
